Structures can show the parent of a compound that is named as a salt.
Tests used:
Assay type in all cases: cell-based, Human
[1] = test system: SKVLB (Ovarian; multidrug resistant); experiment: In vitro cytotoxicity, microculture tetrazolium (MTT) assay, SKVLB; details: Homo sapiens; SKVLB multidrug resistant ovarian; 48 h with compound, further 48 h, MTT; Table 1
Experimental: (§1) The microculture tetrazolium assay was used to test in vitro cytotoxicity. This assay is described in Plumb, J. A. et al., 1989 Cancer Research 49, 4435-4440, which is herein incorporated by reference. The cytotoxicity of compounds towards tumor cells is measured in vitro using the assay. This assay method is based upon the ability of live, but not dead cells to reduce the yellow water soluble dye 3-(4,5-dimethylthiazol-2-yl)-2,5-diphenyltetrazolium bromide (MTT) to its water insoluble purple formazan product.
(§2) Human Tumor Cell lines, used were:
SKVLB (Ovarian; multidrug resistant)--Dr. V. Ling, Ontario Cancer Institute.
(§3) The cells were maintained in exponential growth in culture in minimal essential media (MEM) supplemented with non-essential amino acids, and containing 15% (v/v) fetal. bovine serum, 5 mM L-glutamine, 1 mM sodium pyruvate, and 0.1 U/ml insulin. All cell lines were grown at 37° C. in an atmosphere of 5% CO2 in air.
(§4) MTT: 2 mg/ml in phosphate buffered saline (stable at 4° C. in dark for 1 week).
(§5) Sorensen's buffer: 0.1M glycine/NaOH, pH 10.5, containing 0.1M NaCl.
(§6) Test compounds: 20 mM in DMSO and diluted to a final concentration of 200 μM in culture medium before use.
(§7) For each assay, doxorubicin is included as an inter-assay standard. This allows us to monitor the behaviour of the assay in general, and in particular, to check that the SKVLB line has maintained its resistant phenotype.
(§8) The assays are carried out in 96-well (8 well×12 well) microtiter plates. Serial dilutions of the compound are tested along the length of the plate. A 1:3 serial dilution of compound in culture medium covers a concentration range from 100 μM to 1.7 nM. Each concentration of compound is tested in quadruplet, allowing two compounds to be tested per plate. Wells containing no cells (blank) and cells with no test compound (control) are included on each plate.
(§9) Cells are plated out in 100 μl of culture medium in the microtiter plates at a density of around 1,500-4,000 cells per well. The plates are incubated overnight to allow the cells to become adherent after which the test compound is added (100 μl of appropriate dilution per well). The cells are incubated with test compound at 37° C. for 48 h after which the compound is replaced with fresh medium. After a further 48 h incubation at 37° C., 50 μl of MTT solution (2 mg/ml) is added to each well. The plates are incubated in the dark for 4 h at 37° C. after which the medium is removed. The MTT formazan product is extracted from the cells by the addition of 200 μl DMSO followed by 50 μl of Sorensen's buffer. The plates are shaken briefly and the absorbance at 570 nm is read using a Molecular Devices UV max plate reader. Curves are fit to the MTT assay data using a four parameter logistic equation, and the data are normalized to fit a 0% to 100% survival scale.

[2] = test system: T47D (Ductal carcinoma of breast); experiment: In vitro cytotoxicity, microculture tetrazolium (MTT) assay, T47D; details: Homo sapiens, 48 h with compound, further 48 h, Table 1
Experimental: as §1, §2
T47D (Ductal carcinoma of breast)--ATCC catalog #HTB-133.
as §3, §4, §5, §6, §7, §8, §9

[3] = test system: HT 29 (Colon adenocarcinoma); experiment: In vitro cytotoxicity, microculture tetrazolium (MTT) assay, HT29; details: Homo sapiens, HT-29, 48 h with compound, further 48 h, Table 1
Experimental: as §1, §2
HT 29 (Colon adenocarcinoma) ATCC catalog #HTB-38.
as §3, §4, §5, §6, §7, §8, §9

[4] = test system: SKOV3 (Ovarian adenocarcinoma); experiment: In vitro cytotoxicity, microculture tetrazolium (MTT) assay, SKOV3; details: Homo sapiens, SK-OV-3; SKOV3 ovarian adenocarcinoma; 48 h with compound, further 48 h, MTT; Table 1
Experimental: as §1, §2
SKOV3 (Ovarian adenocarcinoma)--provided by Dr. V. Ling, Ontario Cancer Institute.
as §3, §4, §5, §6, §7, §8, §9

Lox (Melanoma) = experiment: In vitro cytotoxicity, microculture tetrazolium (MTT) assay, LOX; details: Homo sapiens, 48 h with compound, further 48 h, Table 1
Experimental: as §1, §2
Lox (Melanoma)--Southern Research Institute.
as §3, §4, §5, §6, §7, §8, §9

SMILES | IC50 [1] [nM] | IC50 [2] [nM] | IC50 [3] [nM] | IC50 [4] [nM] | IC50 (Lox (Melanoma)) [nM]
CC(=O)[C@@H]1CC2=C(C(=O)c3ccccc3C2=O)[C@@H](O[C@H]2C[C@H](NC(=O)C(F)(F)F)[C@H](I)[C@H](C)O2)O1 [BCH1620, (1'-S,1-R,3-S)-methyl-(1-[2',3',6'-trideoxy-3'-trifluoroacetamido-4'-iodo-L-lyxohexopyranose]-5,10-dioxo-3,4,5,10-tetrahydronaphtho-[2,3-c]-pyran-3-yl)-ketone] | 216 | 183 | 32.8 | 4.2 | 22.7
COCC1(COC)CC2=C(C(=O)c3ccccc3C2=O)[C@H](O[C@H]2C[C@H](NC(=O)C(F)(F)F)[C@H](O)[C@H](C)O2)O1 [BCH1697] | 13200 | 18000 | 11000 | 3700 | 5320
COC(=O)[C@H](CC(C)C)NC(=O)[C@H](CO[C@H]1O[C@H](C(C)=O)CC2=C1C(=O)c1ccccc1C2=O)NC(=O)OC(C)(C)C [BCH1998, (1S,2'S,3S,5'S)-Methyl-(1-O-[N-BOC-Serine-Leucine-Me ester]-5,10-dioxo-3,4,5,10-tetrahydro-1-H-naphtho[2,3-c]pyran-3-yl) ketone] | 1660 | 114 | 36.3 | 125 | 63.1
COC(=O)[C@H](CC(C)C)NC(=O)[C@@H](N)CO[C@H]1O[C@H](C(C)=O)CC2=C1C(=O)c1ccccc1C2=O [BCH2000, (1S,2'S,3S,5'S)-Methyl-(1-O-[Serine-Leucine-Me ester]-5,10-dioxo-3,4,5,10-tetrahydro-1-H-naphtho[2,3-c]pyran-3-yl) ketone hydrochloride] | 6640 | 338 | 37.8 | 95 | 90.5
CC(=O)[C@H]1CC2=C(C(=O)c3ccccc3C2=O)[C@H](O[C@@H]2O[C@@H](C)[C@@H](O)[C@@H](O)[C@H]2I)O1 [BCH2014, (1'S,1S,3R)-methyl-(1-[2',6'-dideoxy-3',4'-dihydroxy-2'-iodo-L-lyxohexopyranose]-5,10-dioxo-3,4,5,10-tetrahydronaphtho[2,3-c]-pyran-3-yl)-ketone] | 39800 | 61800 | 61300 | 21500 | 35900
CC(=O)[C@@H]1CC2=C(C(=O)c3ccccc3C2=O)[C@@H](O[C@@H]2O[C@@H](C)[C@@H](O)[C@@H](O)[C@H]2I)O1 [BCH2015, (1'S,1R,3S)-methyl-(1-[2',6'-dideoxy-3',4'-dihydroxy-2'-iodo-L-lyxohexopyranose]-5,10-dioxo-3,4,5,10-tetrahydronaphtho[2,3-c]-pyran-3-yl) ketone] | 1170 | 909 | 557 | 367 | 1090
CC[C@H]1CC2=C(C(=O)c3ccccc3C2=O)[C@H](O[C@H]2C[C@H](NC(=O)C(F)(F)F)[C@H](O)[C@H](C)O2)O1 [BCH2020, (1'S, 1S, 3S)-5,10-dioxo-3-ethyl-1-(2',3',6'-trideoxy-3'-trifluoroacetamido-L-lyxohexopyranose)-3,4,5,10-tetrahydro-1H-naphtho-[2,3-c]-pyran] | 25900 | 9420 | 19100 | 11200 | 5450
CC[C@H]1CC2=C(C(=O)c3ccccc3C2=O)[C@H](O[C@H]2C[C@H](N)[C@H](O)[C@H](C)O2)O1 [BCH2021, (1'S,1S,3S)-5,10-dioxo-3-ethyl-1-(2',3',6'-trideoxy-3'-amino-L-lyxohexopyranose)-3,4,5,10-tetrahydro-1H-naphtho-[2,3-c]-pyran hydrochloride] | 46400 | 19000 | 37800 | 12400 | 10600
CC(=O)[C@H]1CC2=C(C(=O)c3ccccc3C2=O)[C@H](O[C@@H]2O[C@@H](C)[C@@H](O)[C@@H](NC(=O)C(F)(F)F)C2I)O1 (stereo partly drawn) [BCH2022, (1'S,1S,3R)-methyl-(1-[2',3',6'-trideoxy-2'-iodo-3'-trifluoroacetamido-4'-hydroxy-L-lyxohexopyranose]-5,10-dioxo-3,4,5,10-tetrahydronaphtho-[2,3-c]-pyran-3-yl) ketone] | 1870 | 934 | 532 | 442 | 484
CC(=O)[C@@H]1CC2=C(C(=O)c3ccccc3C2=O)[C@@H](O[C@@H]2O[C@@H](C)[C@@H](O)[C@@H](NC(=O)C(F)(F)F)C2I)O1 (stereo partly drawn) [BCH2023, (1'S,1R,3S)-methyl-(1-[2',3',6'-trideoxy-2'-iodo-3'-trifluoroacetamido-4'-hydroxy-L-lyxohexopyranose]-5,10-dioxo-3,4,5,10-tetrahydronaphtho-[2,3-c]-pyran-3-yl) ketone] | 3200 | 5500 | 980 | 730 | 670
C[C@@H]1O[C@@H](O[C@H]2O[C@H](COc3ccccc3)CC3=C2C(=O)c2ccccc2C3=O)C[C@H](NC(=O)C(F)(F)F)[C@@H]1O [BCH2032, (1'S, 1R, 3S)-5,10-dioxo-3-phenyloxymethyl-1-(2',3',6'-trideoxy-3'-trifluoroacetamido-L-lyxohexopyranose)-3,4,5,10-tetrahydro-1H-naphtho-[2,3-c]pyran] | 17600 to 28000 | 15800 to 23000 | 8490 to 9300 | 6010 to 12000 | 2830 to 5100
CC(=O)[C@@H]1CC2=C(C(=O)c3ccccc3C2=O)[C@@H](O[C@H]2C[C@H](NC(=O)C(F)(F)F)[C@H](O)[C@H](C)O2)S1 [BCH2037, (1'S,1S,3S)-1-(3'-trifluoroacetamido-2',3',6'-trideoxy-L-lyxohexopyranose)-5,10-dioxo-3,4,5,10-tetrahydro-1H-naphtho-[2,3-c]-thiopyran] | 3800 to 4730 | 2200 to 2290 | 1100 to 4250 | 590 to 5090 | 540 to 816
COC1OC(C(=O)Nc2ccccc2)=CC2=C1C(=O)c1ccccc1C2=O (centres unmarked) [BCH2044, 1-methoxy-3-N-anilinylcarbonyl-5,10-dioxo-5,10-dihydro-1H-naphtho-[2,3-c]-pyran] | 5110 | 4250 | 194 | 1440 | 380
CC(=O)[C@H]1CC2=C(C(=O)c3ccccc3C2=O)[C@H](O[C@H]2C[C@H](NC(=O)C(F)(F)F)[C@H](Br)[C@H](C)O2)O1 [BCH2047, (1S,3R,1'S)-Methyl-(1-[2',3',4',6'-tetradeoxy-3'-trifluoroacetamido-4'-bromo-L-lyxohexopyranose]-5,10-dioxo-3,4,5,10-tetrahydronaphthaleno-[2,3-c]pyran-3-yl) ketone] | 523 | 151 | 4.1 | 17 | 21
CC(C)[C@@H]1CC2=C(C(=O)c3ccccc3C2=O)[C@@H](O[C@H]2C[C@H](NC(=O)C(F)(F)F)[C@H](O)[C@H](C)O2)O1 [BCH2053, (1'S, 1R, 3S)-5,10-dioxo-3-isopropyl-1-(2',3',6'-trideoxy-3'-trifluoroacetamido-L-lyxohexopyranose)-3,4,5,10-tetrahydro-1H-naphtho-[2,3-c]-pyran] | 21200 | 12300 | 14000 | 4730 | 3250
CO[C@H]1C[C@H](O[C@H]2O[C@H](C(C)=O)CC3=C2C(=O)c2ccccc2C3=O)O[C@@H](C)[C@H]1OS(C)(=O)=O [BCH2070, (1'-S, 1-R, 3-S)-methyl-(1-[2',3',4',6' tetradeoxy-3'-methoxy-4'-O-methanesulfonyl-L-lyxohexopyranose)-5,10-dioxo-3,4,5,10 tetrahydronaphtho-[2,3-c]pyran-3-yl) ketone] | 120 | 18 | 6 to 534 | 8.4 | 15

— patent US5606037A, “Processes antineoplastic heteronaphthoquinones” (BioChem Pharma Inc., priority 1995, dated 1997)
